Laboratory results published in patent publication US4386077A (Made Italiana s.r.l, priority 1981, dated 1983).

Test: Serum kinetics and absolute bioavailability of ^14 C-labelled CDP-choline and "ASONIC" after i.v. and oral administration in Cynomolgus monkeys
Type: in vivo, Cynomolgus monkey
Conditions: for Plasmatic concentration: average and S.D. of 2 monkeys, 400 mg/kg per os; for Absolute bioavailability F: oral
Description: From the end of the curves serum concentration/time, it was possible to calculate the constant of the apparent elimination speed from the organism as well as the relative half-life. These values were utilized in calculating the AUC T30 hours →T.infin. for the total of the curves concentration/time in the same animal. The AUC To →T30 hrs was calculated by means of the trapezium methods. […] For each dosage, a randomized cross-over procedure was used. Seriated blood samples were collected until 30 hours after each administration. From the single curves concentration/time it was possible to calculate the AUC To →T30 hrs. After each administration, including the intravenous one, urine was collected at the following time intervals: 0-24 hours, 24-48 hours and 48-72 hours.

`C[N+](C)(C)CCOP(=O)(O)OP(=O)([O-])OC[C@H]1O[C@@H](n2ccc(N)nc2=O)[C@H](O)[C@@H]1O` [CDP-choline, cytidine diphosphocholine] gave a Plasmatic concentration (4 hr) of 448 ± 66 DPM/ml serum, a Plasmatic concentration (6 hr) of 1496 ± 134 DPM/ml serum and a Plasmatic concentration (7 hr) of 2636 ± 107 DPM/ml serum. For the same compound, the Plasmatic concentration (8 hr) was 4163 ± 101 DPM/ml serum, the Plasmatic concentration (9 hr) was 4813 ± 513 DPM/ml serum and the Plasmatic concentration (24 hr) was 536 ± 122 DPM/ml serum. For the same compound, the Plasmatic concentration (30 hr) was 470 ± 98 DPM/ml serum, the Serum concentration (monkey no. 1, 25 mg/kg i.v., 5') was 8708 DPM/ml and the Serum concentration (monkey no. 1, 25 mg/kg i.v., 15') was 3169 DPM/ml. The Serum concentration (monkey no. 1, 25 mg/kg i.v., 30') was 2226 DPM/ml, the Serum concentration (monkey no. 1, 25 mg/kg i.v., 60') was 1629 DPM/ml and the Serum concentration (monkey no. 1, 25 mg/kg i.v., 2 hr) was 2165 DPM/ml. The Serum concentration (monkey no. 1, 25 mg/kg i.v., 4 hr) was 2760 DPM/ml, the Serum concentration (monkey no. 1, 25 mg/kg i.v., 7 hr) was 3120 DPM/ml and the Serum concentration (monkey no. 1, 25 mg/kg i.v., 24 hr) was 1812 DPM/ml. The Serum concentration (monkey no. 1, 25 mg/kg i.v., 30 hr) was 1749 DPM/ml, the Serum concentration (monkey no. 1, 200 mg/kg per os, 30') was 45 DPM/ml and the Serum concentration (monkey no. 1, 200 mg/kg per os, 45') was 53 DPM/ml. The Serum concentration (monkey no. 1, 200 mg/kg per os, 60') was 88 DPM/ml, the Serum concentration (monkey no. 1, 200 mg/kg per os, 7 hr) was 852 DPM/ml and the Serum concentration (monkey no. 1, 200 mg/kg per os, 9 hr) was 743 DPM/ml. It also gave a Serum concentration (monkey no. 1, 200 mg/kg per os, 24 hr) of 339 DPM/ml, a Serum concentration (monkey no. 1, 400 mg/kg per os, 30') of 35 DPM/ml and a Serum concentration (monkey no. 1, 400 mg/kg per os, 60') of 52 DPM/ml. For the same compound, the Serum concentration (monkey no. 1, 400 mg/kg per os, 90') was 29 DPM/ml, the Serum concentration (monkey no. 1, 400 mg/kg per os, 2 hr) was 75 DPM/ml and the Serum concentration (monkey no. 1, 400 mg/kg per os, 3 hr) was 187 DPM/ml. For the same compound, the Serum concentration (monkey no. 1, 400 mg/kg per os, 4 hr) was 401 DPM/ml, the Serum concentration (monkey no. 1, 400 mg/kg per os, 6 hr) was 1590 DPM/ml and the Serum concentration (monkey no. 1, 400 mg/kg per os, 7 hr) was 2712 DPM/ml. The Serum concentration (monkey no. 1, 400 mg/kg per os, 8 hr) was 4092 DPM/ml, the Serum concentration (monkey no. 1, 400 mg/kg per os, 9 hr) was 5175 DPM/ml and the Serum concentration (monkey no. 1, 400 mg/kg per os, 24 hr) was 622 DPM/ml. It also gave a Serum concentration (monkey no. 1, 400 mg/kg per os, 30 hr) of 540 DPM/ml, a Serum concentration (monkey no. 2, 25 mg/kg i.v., 5') of 12414 DPM/ml and a Serum concentration (monkey no. 2, 25 mg/kg i.v., 15') of 5007 DPM/ml. It also gave a Serum concentration (monkey no. 2, 25 mg/kg i.v., 30') of 3467 DPM/ml, a Serum concentration (monkey no. 2, 25 mg/kg i.v., 60') of 2625 DPM/ml and a Serum concentration (monkey no. 2, 25 mg/kg i.v., 2 hr) of 2630 DPM/ml. It also gave a Serum concentration (monkey no. 2, 25 mg/kg i.v., 4 hr) of 3369 DPM/ml, a Serum concentration (monkey no. 2, 25 mg/kg i.v., 7 hr) of 4013 DPM/ml and a Serum concentration (monkey no. 2, 25 mg/kg i.v., 24 hr) of 2258 DPM/ml. The Serum concentration (monkey no. 2, 25 mg/kg i.v., 30 hr) was 2145 DPM/ml, the Serum concentration (monkey no. 2, 200 mg/kg per os, 15') was 61 DPM/ml and the Serum concentration (monkey no. 2, 200 mg/kg per os, 45') was 59 DPM/ml. The Serum concentration (monkey no. 2, 200 mg/kg per os, 60') was 94 DPM/ml, the Serum concentration (monkey no. 2, 200 mg/kg per os, 7 hr) was 696 DPM/ml and the Serum concentration (monkey no. 2, 200 mg/kg per os, 9 hr) was 595 DPM/ml. It also gave a Serum concentration (monkey no. 2, 200 mg/kg per os, 24 hr) of 417 DPM/ml, a Serum concentration (monkey no. 2, 200 mg/kg per os, 30 hr) of 303 DPM/ml and a Serum concentration (monkey no. 2, 400 mg/kg per os, 60') of 69 DPM/ml. For the same compound, the Serum concentration (monkey no. 2, 400 mg/kg per os, 90') was 52 DPM/ml, the Serum concentration (monkey no. 2, 400 mg/kg per os, 2 hr) was 81 DPM/ml and the Serum concentration (monkey no. 2, 400 mg/kg per os, 3 hr) was 174 DPM/ml. The Serum concentration (monkey no. 2, 400 mg/kg per os, 4 hr) was 495 DPM/ml, the Serum concentration (monkey no. 2, 400 mg/kg per os, 6 hr) was 1.401 DPM/ml and the Serum concentration (monkey no. 2, 400 mg/kg per os, 7 hr) was 2.560 DPM/ml. For the same compound, the Serum concentration (monkey no. 2, 400 mg/kg per os, 8 hr) was 4.235 DPM/ml, the Serum concentration (monkey no. 2, 400 mg/kg per os, 9 hr) was 4.450 DPM/ml and the Serum concentration (monkey no. 2, 400 mg/kg per os, 24 hr) was 449 DPM/ml. The Serum concentration (monkey no. 2, 400 mg/kg per os, 30 hr) was 401 DPM/ml, the “Absolute bioavailability” value (monkeys, oral control dosages) was “much lower” and the “Absolute bioavailability F” value (monkeys, 200 mg/kg as CDP-choline) was 0.2143. The “Absolute bioavailability F” value (monkeys, 400 mg/kg as CDP-choline) was 0.6174.
